According to PubChem BioAssay (NCI):
Values joined by “and” are separate entries in the source; they are usually repeats but may differ in a detail not shown here. Identical values can stand only once.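 Method: 48-hour compound exposure of cells in 96-well plates, five concentrations, linear interpolation of endpoints. GI50: concentration for 50% inhibition of growth. Definition used: TGI = concentration required for complete inhibition of growth.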

What was measured:
Experiment in all cases: growth of human tumour cells (NCI), 48 h
[1] = tested on: DMS 273 small cell lung
[2] = tested on: MALME-3M melanoma
[3] = tested on: XF 498 CNS
[4] = tested on: SNB-19 CNS
[5] = tested on: NCI-H522 lung
[6] = tested on: K-562 leukemia
[7] = tested on: KM20L2 colon
[8] = tested on: DMS 114 small cell lung
[9] = tested on: DLD-1 colon
[10] = tested on: RXF-631 renal
[11] = tested on: HOP-18 NSCLC
[12] = tested on: MDA-N
[13] = tested on: T-47D breast
[14] = tested on: BT-549 breast
[15] = tested on: MDA-MB-231 breast
[16] = tested on: HS 578T breast
[17] = tested on: A498 renal

SMILES	TGI [1] [µM]	TGI [2] [µM]	TGI [4] [µM]	TGI [5] [µM]	TGI [6] [µM]	TGI [7] [µM]	TGI [8] [µM]	TGI [9] [µM]	TGI [12]	TGI [13] [µM]	TGI [14] [µM]	TGI [15] [µM]	TGI [16] [µM]	TGI [17] [µM]	further results
CCOC(=O)[C@H]1Nc2c(cccc2[N+](=O)[O-])C2c3ccccc3CC21 (stereo partly specified)	> 100	> 100	> 100	> 100	> 100	> 100	> 100	> 100							TGI [3]: > 100 µM; TGI [10]: > 100 µM
Clc1cccc(C2SCc3nc4ccccc4n32)c1 (stereo unspecified)		62.1		29.5	> 100			34.1							TGI [11]: 47.5 µM
Cc1cc(C)c(S(=O)(=O)N(CCCN)OCCCN)c(C)c1		> 100	> 100		> 100				> 100 µM	> 100	> 100	> 100	> 100		
Clc1ccc(-c2nnc(-c3nsc4ccccc34)o2)cc1	> 100		> 100			> 100	> 100								
Fc1ccc(C(OCCN2CC3CC2CN3)c2ccc(F)cc2)cc1 (stereo unspecified)		32.3		> 100	> 100					> 100	> 100	> 100	> 100	> 100	
CC(=O)Nc1cc(/C=C\C(=O)N2CC(CCl)c3c2cc(N)c2ccccc32)n(C)n1 (stereo unspecified)					0.0203				0.0411 µM and 0.0435 µM					0.0211	GI50 [12]: 0.0136 µM; GI50 [14]: 0.0225 µM; GI50 [4]: 0.0277 µM
